pIC50: −log10 of the molar value. Counter-ions that a name gives are not always drawn.
Target: Sfp-PPTase (Bacillus subtilis, UniProt P39135)
Assay: Rhodamine/BHQ-2 dark quench assay
Format: biochemical

Sequence of Sfp-PPTase (P39135 whole entry): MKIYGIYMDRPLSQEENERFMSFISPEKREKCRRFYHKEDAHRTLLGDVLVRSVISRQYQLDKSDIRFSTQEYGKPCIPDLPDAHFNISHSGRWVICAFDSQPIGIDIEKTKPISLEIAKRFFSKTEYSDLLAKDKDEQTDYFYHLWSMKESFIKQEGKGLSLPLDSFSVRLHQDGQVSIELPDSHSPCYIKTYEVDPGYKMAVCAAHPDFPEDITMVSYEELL

Nc1ncnc2c1ncn2[C@@H]1O[C@H](COP(=O)(O)O)[C@@H](OP(=O)(O)O)[C@H]1O [PAP 3, adenosine 3′, 5′-diphosphate sodium salt]
pIC50: 4.84

Source: article PMC2992954 (Molecular bioSystems, 2009)
